Data set [1] deals with T1, PncA (Mycobacterium tuberculosis, UniProt I6XD65). Briefly: biochemical. In kind it is biochemical.
The target in data set [2] is Mycobacterium tuberculosis PncA (MtPncA) (Mycobacterium tuberculosis, UniProt I6XD65).
Data set [3] deals with T1, PncA. Briefly: Inactivation of PncA by iodoacetamide. It is filed as biochemical. Conditions: concentration and pH dependent loss of activity.
Data set [4] addresses T1, PncA. In kind it is biochemical.
For data set [5], the system named is NC(=O)c1cnccn1. Briefly: purified protein, by the assay type. Particulars: pH 7.5; 25.0 °C.

Eight compounds from publication PMC3029496 (Biochemistry, 2010) can be followed below.

Where two headings read alike, the source gives them in different places.

T1 sequence (I6XD65 whole entry): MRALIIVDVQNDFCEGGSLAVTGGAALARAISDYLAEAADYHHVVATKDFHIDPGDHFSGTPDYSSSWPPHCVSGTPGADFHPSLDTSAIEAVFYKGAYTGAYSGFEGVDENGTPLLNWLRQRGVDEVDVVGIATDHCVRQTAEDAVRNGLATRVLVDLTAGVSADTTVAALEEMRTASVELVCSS
Mycobacterium tuberculosis PncA (MtPncA), sequence (I6XD65 whole entry): as above

For `O=Cc1cccnc1` [3-pyridine carboxaldehyde], the mode of inhibition entry in data set [1] is recorded as “competitive inhibitor”.
In the case of `N#Cc1cccnc1` [3-pyridinecarbonitrile], in data set [2], the “enzymatic activity with the compound as substrate” value (“enzymatic activity” below) is “Neither compound is a substrate”. The mode of inhibition result in data set [1] was “reversible, competitive inhibitor”. This compound returned an inhibitory constant (Ki) in data set [1] (Ki, reversible, competitive inhibitor) of about 100 µM.
With `NC(=O)c1ccc(N)nc1` [6-aminonicotinamide], the “enzymatic activity” value in data set [2] is “did not observe any enzymatic activity”.
Regarding `O=C(O)CN(CCN(CC(=O)O)CC(=O)O)CC(=O)O` [EDTA, ethylenediaminetetraacetic acid], the “effect of addition on MtPncA activity” value in data set [2] is listed as “neither the addition of 5 mM EDTA, nor reported inhibitory metals (Zn^+2 for MtPncA) resulted in any decrease in activity”.
In the case of `NC(=O)c1ccccc1` [benzamide], in data set [2], the “enzymatic activity” value was “did not observe any enzymatic activity”.
Regarding `NC(=O)CI` [iodoacetamide], in data set [3], the “inactivation of PncA” value was “inactivator of PncA”.
Consider `N#Cc1cnccn1` [pyrazinecarbonitrile], for which, in data set [2], the “enzymatic activity” value was “Neither compound is a substrate”. Besides, in data set [4], the kinact/KI stood at 975 M⁻¹ s⁻¹ and the mode of inhibition entry was “irreversible inactivator”. Further, in data set [4] (pH 7.5), the kinact result is “Kinact = 0.06 ± 0.01 sec^−1 Ki = 61 ± 3 μM”. Moreover, the KI (inactivation) in data set [4] (read-out: Ki (inactivation), pH 7.5) was determined as 61 µM.
For (Mycobacterium tuberculosis H37Rv), in data set [5], the Km stood at 300 ± 40 µM, the kcat was determined as 3.8 ± 0.1 s⁻¹ and the catalytic efficiency (kcat/Km) amounted to 13000 M⁻¹ s⁻¹.
